PubChem BioAssay (NCI)
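Cultured in 96-well plates, cells were exposed to test compound for 48 hours across five concentrations. GI50: concentration for 50% inhibition of growth. Definition used: TGI = concentration required for complete inhibition of growth.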

Assays:
Experiment in all cases: DTP human tumour cell line panel, 48 h
SNB-75 CNS = tested on: SNB-75 CNS
CCRF-CEM leukemia = tested on: CCRF-CEM leukemia
MCF7 breast = tested on: MCF7 breast
RPMI-8226 leukemia = tested on: RPMI-8226 leukemia
MDA-MB-231 breast = tested on: MDA-MB-231 breast
OVCAR-5 ovarian = tested on: OVCAR-5 ovarian
SK-MEL-5 melanoma = tested on: SK-MEL-5 melanoma
UACC-257 melanoma = tested on: UACC-257 melanoma
BT-549 breast = tested on: BT-549 breast
IGROV1 ovarian = tested on: IGROV1 ovarian

| Structure (SMILES) | TGI (SNB-75 CNS) [µM] | TGI (CCRF-CEM leukemia) [µM] | TGI (MCF7 breast) [µM] | TGI (RPMI-8226 leukemia) [µM] | TGI (MDA-MB-231 breast) [µM] | TGI (OVCAR-5 ovarian) [µM] | TGI (SK-MEL-5 melanoma) [µM] | TGI (UACC-257 melanoma) [µM] | TGI (BT-549 breast) [µM] | TGI (IGROV1 ovarian) [µM] | GI50 (CCRF-CEM leukemia) [µM] | GI50 (RPMI-8226 leukemia) [µM] | GI50 (BT-549 breast) [µM] | GI50 (IGROV1 ovarian) [µM] |
| --- | --- | --- | --- | --- | --- | --- | --- | --- | --- | --- | --- | --- | --- | --- |
| Cc1c(C)c2c(c(N)c1C#N)C(=O)N(NC(=O)c1ccccc1)C2=O | > 100 | > 100 | > 100 | > 100 | > 100 | > 100 | > 100 | > 100 | > 100 | > 100 | – | – | – | – |
| CC1CC(OP(=O)(OCc2ccccc2)OCc2ccccc2)[C@@H](OCc2ccccc2)C(OCc2ccccc2)C1OCc1ccccc1 (some centres not stated) | > 100 | > 100 | > 100 | > 100 | > 100 | > 100 | > 100 | > 100 | > 100 | > 100 | – | – | – | – |
| CC1(C)OC(C(=O)Nc2cc3c4ccccc4ccc3c3ccccc23)C(C(=O)N2CCCCC2)O1 (configuration not stated) | > 100 | > 100 | > 29.7 | > 43.2 | > 100 | > 100 | > 100 | > 100 | > 100 | > 100 | – | – | – | – |
| COC(=O)C1=C(C(=O)OC)N(c2ccc(OC)cc2[N+](=O)[O-])C(c2ccc(C)cc2)=CC1c1ccc(OC)cc1OC (configuration not stated) | > 87.7 | > 32.4 | > 100 | 6.07 | > 74 | > 100 | > 100 | > 100 | > 100 | 56.8 | – | – | – | – |
| O=c1oc2ccccc2cc1-c1cc2ccccn2c1 | > 100 | > 100 | > 100 | > 100 | > 100 | > 100 | > 100 | > 100 | > 100 | > 100 | – | – | – | – |
| O=S(=O)(O)CCCc1cccc2ccccc12 | > 100 | > 100 | > 100 | > 100 | > 100 | > 100 | > 100 | > 100 | > 100 | > 100 | – | – | – | – |
| CC(C)(C)OC(=O)N(CCCCN(CCCNC(=O)C(F)(F)F)C(=O)OC(C)(C)C)CCCNC(=O)C(F)(F)F | > 100 | > 100 | > 100 | > 100 | > 100 | > 100 | > 100 | > 100 | > 100 | > 100 | – | – | – | – |
| O=[N+]([O-])C[C@@]12O[C@]3(O)C4C5CC(C6C5C3C61)C42 (some centres not stated) | > 100 | > 100 | > 100 | > 100 | > 100 | > 100 | > 100 | > 100 | > 100 | > 100 | – | – | – | – |
| C/C=C/C(CC(O)(C(F)(F)F)C(F)(F)F)=N/NC(N)=S | > 10 | > 10 | > 10 | > 10 | > 10 | > 10 | > 10 | > 10 | > 10 | > 10 | – | – | – | – |
| NS(=O)(=O)c1ccc(/C=C/c2ccc(O)c(O)c2)cc1 | 58.3 | > 100 | 51.9 | 73.3 | 64.6 | > 100 | 29.6 | > 100 | 27.1 | 40.1 | 4.79 | 9.16 | 4.13 | 4.49 |
| Brc1ccc2[nH]cc(-c3csc(-c4c[nH]c5ccccc45)n3)c2c1 | 23.9 | 5.89 | > 100 | 12.1 | 6.37 | 4.86 | 5.64 | 17.8 | 22.7 | 11.6 | – | – | – | – |
| N#Cc1n[nH]n(-c2ccc(Br)cc2)c1=O | > 100 | > 100 | > 100 | > 100 | > 100 | > 100 | – | > 100 | > 100 | > 100 | – | – | – | – |
| COc1cc(OC)cc(Oc2nc3ccccc3nc2C(F)(F)F)c1 | > 100 | > 100 | > 100 | > 100 | 94.9 | > 100 | > 100 | > 100 | > 100 | > 100 | – | – | – | – |
| O=C1COc2cccnc2N1CCCCO | > 100 | > 100 | > 100 | > 100 | > 100 | > 100 | > 100 | > 100 | > 100 | > 100 | – | – | – | – |
| CN1CCc2c([nH]c3ccccc23)C1 | > 100 | > 100 | > 100 | > 100 | > 100 | > 100 | > 100 | > 100 | > 100 | > 100 | – | – | – | – |
| CC(=O)N(C(C)=O)c1ncc(-n2nc(-c3ccccc3)cc2-c2ccccc2)c(-c2ccccc2)n1 | > 10 | > 10 | > 10 | > 10 | > 10 | > 10 | > 10 | > 10 | > 10 | > 10 | – | – | – | – |
| CC(=O)OC(OC(C)=O)c1ccc2ccc3cccc4ccc1c2c34 | 41.6 | > 100 | 79.1 | > 100 | 84.1 | 41.8 | 32.8 | 34.5 | 53.6 | 54.1 | – | – | – | – |
| Cc1ccc(-c2c(C#N)c(-c3ccc(C)cc3)n(NS(=O)(=O)c3ccccc3)c(=O)c2C#N)cc1 | > 100 | 77.7 | > 100 | 38.8 | > 100 | > 100 | 31.2 | > 100 | > 100 | > 100 | – | – | – | – |
| O=[N+]([O-])c1ccc(CN(CCCl)OCCCl)cc1 | > 100 | > 100 | > 100 | > 100 | > 100 | > 100 | > 100 | > 100 | > 100 | > 100 | – | – | – | – |
| CC(=O)Nc1sc(Br)cc1S(=O)(=O)c1ccc(Cl)cc1 | 88.6 | > 100 | 47.3 | > 100 | > 100 | > 100 | – | > 100 | 74.8 | > 100 | – | – | – | – |
